{"source": "paper PMC12090178", "about": "“Exploring the Potential of Homologous Recombination Protein PALB2 in Synthetic Lethal Combinations” (ACS Chemical Biology, 2025)", "note": "Where a SMILES comes first, the peptide text is derived from it. Where no end group is shown, it is not given here. The star is where a group is joined. Azidoacetyl = [N-]=[N+]=NCC(=O)*; Cbz = O=C(OCc1ccccc1)*", "data": [{"target": "T1, PALB2C (Homo sapiens, UniProt Q86YC2)", "T1 construct": "C terminal part of Palb2 (aa 835-1186); His tag (C); 3C protease site; host or cells: Hi5 insect cells (virus produced and amplified in Sf9)", "T1 sequence (Q86YC2 835-1186)": "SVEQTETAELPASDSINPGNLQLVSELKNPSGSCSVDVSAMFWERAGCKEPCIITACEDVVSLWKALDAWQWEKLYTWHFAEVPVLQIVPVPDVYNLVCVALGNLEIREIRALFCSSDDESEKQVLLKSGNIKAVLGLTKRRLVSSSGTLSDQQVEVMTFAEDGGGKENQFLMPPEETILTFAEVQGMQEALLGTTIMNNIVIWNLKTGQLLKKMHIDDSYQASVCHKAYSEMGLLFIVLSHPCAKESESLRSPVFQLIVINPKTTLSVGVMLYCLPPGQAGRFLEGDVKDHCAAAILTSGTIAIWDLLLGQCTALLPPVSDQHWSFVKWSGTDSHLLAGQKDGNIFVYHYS", "experiment": "Displacement polarization assay (competition with FLU-GG-[…])", "settings": "alanine scan of BRCA2 21-35; dark peptide 10 μM, probe FLU-GG-[…] 10 nM; 20 min RT, 25 °C; competitive binding fit; N = 1-4; read-out: KD (alanine scan)", "units": {"Kd": "µM"}, "procedure": "To the mixture above, the dark peptide was added at a final concentration of 10 μM (1000 eq. excess). After incubation in the dark at RT for 20 min, fluorescence polarization was measured (ex: 485:20, em: 535:25, 25 °C).KD was obtained by fitting the signal to a competitive binding model described previously[52] by using the python lmfit package with the nonlinear least-squares method.\n9.3 Displacement polarization assay\nThe displacement assay was set up similarly to the direct polarization assay. In addition to the\nDMSO) was added to a final concentration of 20 μM.\nμM and 10 nM for the peptide and the probe, respectively.\nThe resulting binding curve was fitted using the python lmfit package3 to a linearly transformed competitive KD binding model described previously4 using the non- linear least\n𝑚𝑚 = 𝐾𝐾D, Probe + 𝐾𝐾D, Pep + 𝑐𝑐Probe + 𝑐𝑐Pep − 𝑐𝑐Prot\n𝑛𝑛 = 𝐾𝐾D, Pep ⋅ (𝑐𝑐Probe − 𝑐𝑐Prot ) + 𝐾𝐾D, Probe ⋅ ?𝑐𝑐Pep − 𝑐𝑐Prot ? + 𝐾𝐾D, Pep ⋅ 𝐾𝐾D, Probe 𝑜𝑜 = −𝐾𝐾D, Pep ⋅ 𝐾𝐾D, Pro be ⋅ 𝑐𝑐Prot\n𝜃𝜃 = cos −1 ?−2𝑚𝑚 3 + 9𝑚𝑚𝑛𝑛 − 27𝑜𝑜 ?\n𝑟𝑟 = 2 ⋅ ?𝑚𝑚 2 − 3𝑛𝑛 ⋅ cos 𝜃𝜃3 − 𝑚𝑚\n𝑓𝑓 = 𝑐𝑐Probe ⋅ 𝑟𝑟3 ⋅ 𝐾𝐾D, Probe + 𝑟𝑟", "values": [{"compound": "H-KAALGPISLNWFEEL-NH2 [Peptide P29]", "Kd": 4.6}, {"compound": "H-KADLGAISLNWFEEL-NH2 [Peptide P32]", "Kd": 3.6}, {"compound": "H-KADLGPASLNWFEEL-NH2 [Peptide P33]", "Kd": 5.3}, {"compound": "H-KADLGPIALNWFEEL-NH2 [Peptide P34]", "Kd": 4.9}, {"compound": "H-KADLGPISANWFEEL-NH2 [Peptide P35]", "Kd": 6.7}, {"compound": "H-KADLGPISLAWFEEL-NH2 [Peptide P36]", "Kd": 4}, {"compound": "H-KADLGPISLNAFEEL-NH2 [Peptide P25]", "Kd": 5.5}, {"compound": "H-KADLGPISLNWAEEL-NH2 [Peptide P26]", "Kd": 10.1}, {"compound": "H-KADLGPISLNWFAEL-NH2 [Peptide P27]", "Kd": 5.1}, {"compound": "H-KADLGPISLNWFEAL-NH2 [Peptide P28, H-KADLGPISLNWFEAL-NH2]", "Kd": 7}]}, {"target": "T1, PALB2C", "experiment": "Displacement polarization assay (competition with FLU-GG-[…])", "settings": "truncated BRCA2 peptides; dark peptide 10 μM, probe FLU-GG-[…] 10 nM; 20 min RT, 25 °C; competitive binding fit; PALB2C source Hi5 (Figure 2B); N = 1-5; read-out: KD (other peptides)", "units": {"Kd": "µM"}, "values": [{"compound": "H-DLGPISLNWFEEL-NH2 [Peptide P8]", "Kd": 7.9}, {"compound": "H-GPISLNWFE-NH2 [Peptide P12]", "Kd": 17.9}, {"compound": "H-GPISLNWFEEL-NH2 [Peptide P7]", "Kd": 82.2}, {"compound": "H-KADLGPISLNWFE-NH2 [Peptide P14]", "Kd": 25.2}, {"compound": "H-KADLGPISLNWFEEL-NH2 [Peptide P9]", "Kd": 5}]}, {"target": "T2, PALB2 C-terminal domain (PALB2C) (Homo sapiens, UniProt Q86YC2)", "T2 construct": "C terminal part of Palb2 (aa 835-1186); His tag (C); 3C protease site; host or cells: Hi5 insect cells (virus produced and amplified in Sf9)", "T2 sequence (Q86YC2 835-1186)": "T1 sequence (Q86YC2 835-1186)", "experiment": "Direct fluorescence polarization of labelled BRCA2 peptides", "format": "binding", "settings": "FAM-GG-BRCA(10-39) compared with FAM-GG-BRCA(21-39)", "experimental": "(§1) FLU-GG-[…] (Peptide Protein Research Ltd., Fareham, UK) was dissolved in DMSO at 1 μM. PALB2C (22 μM, in 20 mM HEPES, 100 mM NaCl, 1 mM DTT, 1 mM EDTA) was diluted to a final concentration of 4.4 μM (same buffer supplemented with 0.01% (v/v) IGEPAL CA-630). The protein was serially diluted and fluorescent peptide was added to a final concentration of 10 nM. After incubation in the dark at RT for 20 min, fluorescence polarization was measured (ex: 485:20, em: 535:25, 25 °C). KD was obtained by fitting the signal to a binding model using the python lmfit package with the nonlinear least-squares method.[51]\n(§2) 9 Fluorescent polarization assay\n(§3) 9.1.1 Insect cell expression\n(§4) PALB2-C was synthesized by the EPFL protein production facility0F1. In short; the virus was produced and amplified in Sf9 cells. C-terminal His-Tagged 3C-PALB2C was grown in 5 L o f Hi5 cells and harvested after 3 days. Pellet was frozen, defrosted and resuspended in 200 mL of wash buffer, supplemented to 5 % glycerol (v/v), 50 μL benzonase, and 2 protease inhibitor tablets. The mixture was clarified with a French press for a total of 4 cycles and centrifu g e d a t 32 kcfg for 1 h. The supernatant was decanted, supplemented with imidazole to a final concentration of 25 mM and added to 5 mL of Ni-NTA bead s. The b ead s were in cub ated with […]\n(§5) The beads were washed with 40 column volumes (CV) with wash buffer (500 mM NaCl, 20 mM HEPES, pH 7.5), 10 CV with wash buffer and 50 mM imid az o le . The protein was eluted with 6 CV of elution buffer (500 mM NaCl, 20 mM HEPES, 300 mM imidazole, pH 7.5) to a total volume of 38 mL. The elute was concentrated to 1 mL and injected onto a pre-equilibrated Superdex 200 10/300GL column (250 mM NaCl, 10 mM HEPES, 5 mM DTT, 1 mM EDTA, pH […]\n(§6) A total volume of 950 μL PALBC was received at a concentration of 1 mg/mL (equals 22 μM) in the superdex buffer. This corresponds to a yield of 0.19 mg/L of Hi5 cells. […]\n(§7) Concentration was measured on a NanoDrop 2000. The concentration was determined to be […]", "values": [{"compound": "CC[C@H](C)[C@H](NC(=O)[C@H](CCC(=O)O)NC(=O)[C@H](Cc1ccccc1)NC(=O)[C@H](Cc1ccccc1)NC(=O)[C@@H](NC(=O)CNC(=O)CNC(=O)c1ccc2c(c1)C(=O)OC21c2ccc(O)cc2Oc2cc(O)ccc21)[C@@H](C)O)C(=O)N[C@@H](Cc1ccccc1)C(=O)N[C@@H](CCCCN)C(=O)N[C@H](C(=O)N[C@@H](CCCNC(=N)N)C(=O)N[C@@H](CS)C(=O)N[C@@H](CC(N)=O)C(=O)N[C@@H](CCCCN)C(=O)N[C@@H](C)C(=O)N[C@@H](CC(=O)O)C(=O)N[C@@H](CC(C)C)C(=O)NCC(=O)N1CCC[C@H]1C(=O)N[C@H](C(=O)N[C@@H](CO)C(=O)N[C@@H](CC(C)C)C(=O)N[C@@H](CC(N)=O)C(=O)N[C@@H](Cc1c[nH]c2ccccc12)C(=O)N[C@@H](Cc1ccccc1)C(=O)N[C@@H](CCC(=O)O)C(=O)N[C@@H](CCC(=O)O)C(=O)N[C@@H](CC(C)C)C(=O)N[C@@H](CO)C(=O)N[C@@H](CO)C(=O)N[C@@H](CCC(=O)O)C(=O)N[C@@H](C)C(N)=O)[C@@H](C)CC)[C@@H](C)O", "note": "[FAM-GG-BRCA(10-39)] (HELM PEPTIDE1{[O=C1OC2(c3ccc(O)cc3Oc3cc(O)ccc32)c2ccc(C(=O)[*:2])cc21].G.G.T.F.F.E.I.F.K.T.R.C.N.K.A.D.L.G.P.I.S.L.N.W.F.E.E.L.S.S.E.A.[am]}$$$$V2.0; N-terminus and C-terminus assumed)", "gain in binding affinity from residues 12-21": "6–10 fold"}]}, {"target": "T2, PALB2 C-terminal domain (PALB2C)", "experiment": "Direct fluorescence polarization of labelled BRCA2 peptides", "format": "binding", "settings": "direct FP; PALB2C source Hi5 insect cells; labelled peptide 10 nM; PALB2C serially diluted from 4.4 μM; 20 mM HEPES, 100 mM NaCl, 1 mM DTT, 1 mM EDTA, 0.01% IGEPAL CA-630; 20 min RT, read at 25 °C; N = 3-20", "experimental": "as §1, §2, §3, §4, §5, §6, §7", "units": {"Kd": "µM"}, "values": [{"compound": "Cy5-DBCO-GG-BRCA(21-39): Cy5-modified peptide: P38 modified with 2-azidoacetic acid and Cy5-DBCO ({Cy5‑DBCO-Azidoacetyl}-GGKADLGPISLNWFEELSSEA; UniProt P51587 21-39, looked up, fragment)", "Kd": 0.064}, {"compound": "FLU-GG-KADLGPISLNWFEELSSEA [FAM-GG-BRCA(21-39), fluorescein-labelled BRCA2(21-39) peptide, Peptide Protein Research Ltd; FP probe]", "Kd": 0.63}]}, {"test_system": "PALB2-IKZF3d", "experiment": "IMiD-induced degradation of PALB2-IKZF3d (Western blot)", "format": "cell-based", "settings": "1 μM inhibitor 6 h, then 10 μM pomalidomide 18 h", "experimental": "(§8) 5.1 Degradation of PALB2 and UPP rescue assays\n(§9) To show PALB2 deegradation, cells were treated with pomalidomide at the indicated concentrations for 24 h. The cells were subsequently lysed and prepared for gel electrophoresis and western blotting.\n(§10) To show UPP rescue, MG132 and MLN4924 were used to inhibit the ubiquitination-proteasome degradation pathway. The cells were first treated with 1 μM MG132 or 1 μM MLN4924. After 6 h, pomalidomide was added to a final concentration of 10 μM. After 18 h, the cells were collected and lysed.\n(§11) To show PALB2 recovery, the cells were first treated with 10 μM pomalidomide or 10 μM iberdomide for 24 h. After that, the culture medium was removed, the cells were washed three times with fresh culture medium and then cultured with culture medium without IMiDs.\n(§12) The cells were then collected an d l yse d . […]\n(§13) Figure S7. A). Degradation of endogenous PALB2.\n(§14) B). PALB2 de gra dation rescue expe ri ment. The cells in the degradation rescue group w ere first t reated with 1 μ M MG132 and 1 μ M M LN49 24 for 6 hou rs and then t reated with 10 μ M pomalidomide for 1 8 hours. Cell samples were collected for WB analysis. The asterisk represents a nonspecific band of PALB 2 with t his antibody. […]", "values": [{"compound": "CC(C)C[C@@H](C=O)NC(=O)[C@H](CC(C)C)NC(=O)[C@H](CC(C)C)NC(=O)OCc1ccccc1", "note": "[MG132] (Cbz-Leu-Leu-Leu-aldehyde)", "rescue of pomalidomide-induced PALB2-IKZF3d degradation": "prevented the pomalidomide-induced degradation of PALB2-IKZF 3d"}, {"compound": "NS(=O)(=O)OC[C@@H]1C[C@@H](n2ccc3c(N[C@H]4CCc5ccccc54)ncnc32)C[C@@H]1O", "note": "[MLN4924]", "rescue of pomalidomide-induced PALB2-IKZF3d degradation": "prevented the pomalidomide-induced degradation of PALB2-IKZF 3d"}]}, {"test_system": "PALB2-IKZF3d", "experiment": "IMiD-induced degradation of PALB2-IKZF3d (Western blot)", "format": "cell-based", "settings": "10 μM IMiD for 24 h, then medium removed and cells washed, knock-in cells", "experimental": "as §8, §9, §10, §11, §12, §13, §14", "values": [{"compound": "O=C1CC[C@H](N2Cc3c(OCc4ccc(CN5CCOCC5)cc4)cccc3C2=O)C(=O)N1", "note": "[Iber, iberdomide]", "recovery of PALB2 levels after wash out": "PALB2 levels recover after 24 h"}]}, {"test_system": "PALB2-IKZF3d", "experiment": "IMiD-induced degradation of PALB2-IKZF3d (Western blot)", "format": "cell-based", "settings": "homozygous IKZF3d knock-in HEK293 cells, 24 h treatment", "experimental": "as §8, §9, §10, §11, §12, §13, §14", "values": [{"compound": "O=C1CC[C@H](N2Cc3c(OCc4ccc(CN5CCOCC5)cc4)cccc3C2=O)C(=O)N1", "note": "[Iber, iberdomide]", "degradation of PALB2 in IKZF3d knock-in cells": "degradation could also be induced"}]}, {"test_system": "HEK293 PALB2 IKZF3d/IKZF3d knock-in cells", "experiment": "Cell viability assay (WST-1)", "format": "cell-based", "settings": "homozygous KI cells pretreated with 10 μM Pom, then DNA damaging drug, 5 days cotreatment, WST1", "values": [{"compound": "CC[C@@]1(O)C(=O)OCc2c1cc1n(c2=O)Cc2cc3ccccc3nc2-1", "note": "[CPT, camptothecin]", "synergistic toxicity with PALB2 depletion": "noticeable synergistic toxicity"}, {"compound": "O=C(c1cc(Cc2n[nH]c(=O)c3ccccc23)ccc1F)N1CCN(C(=O)C2CC2)CC1", "note": "[olaparib]", "synergistic toxicity with PALB2 depletion": "noticeable synergistic toxicity"}]}]}
